PubChem BioAssay (NCI)
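Tested at 5 concentrations; 48 h exposure; 96-well plates; endpoints linearly interpolated, else capped at highest concentration. GI50 = concentration required for 50% inhibition of growth. TGI denotes the concentration required for complete inhibition of growth.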

Key:
Assay in all cases: NCI tumour cell line growth inhibition, 48 h
[1] = system: DU-145 prostate
[2] = system: MDA-MB-231 breast
[3] = system: MDA-N
[4] = system: SN12K1 renal
[5] = system: P388 leukemia
[6] = system: P388/ADR leukemia
[7] = system: RXF-631 renal
[8] = system: XF 498 CNS

`Cc1n(-c2ccccc2)c2c([n+]1Cc1ccc([N+](=O)[O-])cc1)C(=O)c1ccccc1C2=O` gave a TGI [1] of 3.28 µM, a TGI [2] of 3.08 µM and a TGI [3] of 3.16 µM.

`Nc1nc(Sc2ccc([N+](=O)[O-])cn2)c2[nH]cnc2n1` showed a TGI [1] of 43.8 µM, a TGI [2] of 35.1 µM and a TGI [3] of 34.6 µM.

For `CCN(CC)CCOCC1CCCN2CCCCC12` (centres undefined), the TGI [1] was > 100 µM, the TGI [2] was > 100 µM and the TGI [3] was > 100 µM.

In the case of `NS(=O)(=O)c1ccc(N=Nc2nc3[nH]cnc(=S)c3[nH]2)cc1`, the TGI [1] is reported as 41.1 µM, the TGI [2] is reported as > 25.3 µM and the TGI [3] is reported as > 38.9 µM.

Compound `Cc1n(CC(C)C)c2c([n+]1CC(=O)c1ccc([N+](=O)[O-])cc1)C(=O)c1ccccc1C2=O` has a TGI [4] of 0.279 µM, a TGI [5] of 0.563 µM and a TGI [6] of 61.3 µM.

`NC(N)=NCCCC(NCc1c2ccccc2[n+]([O-])c2ccccc12)C(=O)O` (centres undefined) was tested, and the TGI [7] was > 100 µM.

With `COc1cc(O)c2c(c1O)C(=O)c1cc(C)ncc1C2=O` the TGI [8] was > 50 µM.

For `c1ccc(C2=NN[C@H](c3cn(-c4ccccc4)nc3-c3ccccc3)C2)cc1`, the GI50 [1] was 71.8 µM, the TGI [1] was > 100 µM and the GI50 [2] was 3.86 µM. For the same compound, the TGI [2] was > 100 µM.

In the case of `CCCCCCCSCC1OC(n2cnc3c(N)ncnc32)C(O)C1O` (centres undefined), the TGI [8] is reported as 97.6 µM.

For `Oc1c2c(c3c4c1N=CC=4CCN=3)C1(C=C(Br)C(O)C(Br)=C1)CCN2` (centres undefined), the TGI [4] was 10.7 µM and the TGI [6] was 4.81 µM.
